Data taken from patent publication US20260083830A1, “BIODEGRADABLE POLYMERIC PARTICLES FOR DELIVERY OF POSITIVELY CHARGED THERAPEUTIC AGENTS” (REGENTS OF THE UNIVERSITY OF MICHIGAN, priority 2022, published 2026).

How the values were obtained:
[1] = previous studies; cited from earlier work
EAE [2] = test: EAE murine model, effects of remote loaded nanoparticles on Treg response, EAE scores (Example IX); type: in vivo, C57BL/6J mice; settings: 10 ug subcutaneous by the tail base
Method: EAE was induced in a murine model as described in Example VIII. There were 3 treatment groups and one group that only received phosphate-buffered saline (PBS). For the treatment groups, 10 ug of self-antigen in 1 mL PBS was aliquoted from the MOG 38-50 loaded PLGA nanoparticles batch based on loading % determined by UPLC. The first treatment group received remote loaded nanoparticles injected subcutaneously by the tail base. The second treatment group received remote loaded nanoparticles injected intravenously in the tail. The third treatment group received 10 ug of free MOG 38-50 peptide injected subcutaneously by the tail base. EAE was assessed daily using the 0 to 5 clinical score scale described in Example VII.

EAE [3] = test: EAE murine model, intravenous versus subcutaneous administration of remote loaded nanoparticles (Example VIII); type: in vivo, C57BL/6J mice; settings: 100 ug subcutaneous by the tail base; after 60 days
[4] = Net charge of peptide at neutral pH; type: physicochemical; settings: owing to 2 Arginine residues

| Compound | charge at neutral pH [1] | EAE score (EAE [2]; after day 8) | EAE score (EAE [2]; day 8) | EAE clinical score (EAE [3]) | charge [4] |
| --- | --- | --- | --- | --- | --- |
| CCNC(=O)[C@@H]1CCCN1C(=O)[C@H](CCCNC(=N)N)NC(=O)[C@H](CC(C)C)NC(=O)[C@@H](CC(C)C)NC(=O)[C@H](Cc1ccc(O)cc1)NC(=O)[C@H](CO)NC(=O)[C@H](Cc1c[nH]c2ccccc12)NC(=O)[C@H](Cc1c[nH]cn1)NC(=O)[C@@H]1CCC(=O)N1 [leuprolide] | ~+1 |  |  |  |  |
| C[C@@H](O)[C@@H]1NC(=O)[C@H](CCCCN)NC(=O)[C@@H](Cc2c[nH]c3ccccc23)NC(=O)[C@H](Cc2ccccc2)NC(=O)[C@@H](NC(=O)[C@H](N)Cc2ccccc2)CSSC[C@@H](C(=O)N[C@H](CO)[C@@H](C)O)NC1=O [octreotide] | ~+1.7 |  |  |  |  |
| MOG 38-50 (GWYRSPFSRVVHL) [free MOG 38-50 peptide] |  | ~3.0 | ~2.5 | 3.5 | > +1 |
